“Also recorded” adds a separate entry of the source.
Experiments:
[1] = tested on: insulin receptor, Akt and ERK phosphorylation; test: Insulin signalling by western blotting in liver and muscle; type: in vivo, mouse; settings: 50 mg kg^−1 ip, after insulin injection
Method: Liver and muscle were homogenized in a lysis buffer (1% triton, 0.5 % deoxycholate, 10 mM Na pyruvate, 2 mM Na Vanadate, 100 mM NaF) supplemented with the proteases inhibiteurs cocktails) and the resulting homogenate clarified by centrifugation. Proteins expression and phosphorylation were evaluated by western blot analysis. The signals were detected with a Pierce ECL western blotting substrate (Thermo scientific), according the manufacturer instructions. Primary antibodies were diluted at 1/1,000 and incubated overnight in PBS 0.1% Tween 20, 5% milk.

[2] = tested on: human SY5Y neuroblastoma cells; test: Aβ1–40 secretion by differentiated SH-SY5Y cells (ELISA); type: cell-based; settings: 10 μM and 30 μM, 48 h
Method: The human neuroblastoma cell lines SH-SY5Y were provided from ATCC (cat. no. crl2266) with a Certificate of Analysis and not checked in the lab for mycoplasma contamination. […] SH-SY5Y were seeded in a 96-well plate at 200,000 cells per cm^2. […] Differentiated cells were then incubated with compounds at 10 μM and 30 μM in presence of 0.1% DMSO.

[3] = tested on: NOD mice; test: Oral glucose tolerance test (OGTT) in NOD mice; type: in vivo, mouse; settings: 50 mg kg^−1 ip
Method: OGTT and IPGTT were performed on 11 to 16 week-old male or female mice (n=4–7 per experimental group). C57BL/6J mice were purchased from Charles River Laboratories (France), Stock no. 000664. C57BL/6J Ide−/− mice were obtained from Guenette[20] and bred in the animal facility of INSERM U1151. WT C57BL/6J mice of the same genetic background were bred in the same animal facility in parallel. NOD Ide−/− mice were generated by backcrossing C57BL/6J Ide−/− mice with NOD wt mice bred in the animal facility of INSERM U1151 and maintained in this facility together with WT NOD mice. Normoglycemic WT and Ide−/− female NOD mice aged 14 weeks were used for OGTTs. Following a 6 h fasting period, a small tail cut was made, basal blood glucose was determined. […] Fifteen minutes later, blood glucose concentrations were measured before and after (up to 120 min, as shown) oral (2 g kg^−1 or 3 g kg^−1, as shown) or intraperitoneal (1.5 g kg^−1) glucose administration. […] Blood glucose levels were determined using an Accu-Check glucometer (Roche Diagnostics). Areas under the curves (AUC) for OGTT and IPGTT were calculated to evaluate glucose tolerance. Plasma insulin concentrations were measured by ELISA (cat. no. 10-1247-01,Mercodia) in blood samples collected 15 min before and 15 and 90 min relative to oral glucose injection. […]

[4] = target: T1, hIDE (Homo sapiens, UniProt P14735); test: In vitro hIDE inhibition of Aβ16–23-based substrate hydrolysis; type: biochemical
T1 construct: made in house
T1 sequence (P14735 1-1019): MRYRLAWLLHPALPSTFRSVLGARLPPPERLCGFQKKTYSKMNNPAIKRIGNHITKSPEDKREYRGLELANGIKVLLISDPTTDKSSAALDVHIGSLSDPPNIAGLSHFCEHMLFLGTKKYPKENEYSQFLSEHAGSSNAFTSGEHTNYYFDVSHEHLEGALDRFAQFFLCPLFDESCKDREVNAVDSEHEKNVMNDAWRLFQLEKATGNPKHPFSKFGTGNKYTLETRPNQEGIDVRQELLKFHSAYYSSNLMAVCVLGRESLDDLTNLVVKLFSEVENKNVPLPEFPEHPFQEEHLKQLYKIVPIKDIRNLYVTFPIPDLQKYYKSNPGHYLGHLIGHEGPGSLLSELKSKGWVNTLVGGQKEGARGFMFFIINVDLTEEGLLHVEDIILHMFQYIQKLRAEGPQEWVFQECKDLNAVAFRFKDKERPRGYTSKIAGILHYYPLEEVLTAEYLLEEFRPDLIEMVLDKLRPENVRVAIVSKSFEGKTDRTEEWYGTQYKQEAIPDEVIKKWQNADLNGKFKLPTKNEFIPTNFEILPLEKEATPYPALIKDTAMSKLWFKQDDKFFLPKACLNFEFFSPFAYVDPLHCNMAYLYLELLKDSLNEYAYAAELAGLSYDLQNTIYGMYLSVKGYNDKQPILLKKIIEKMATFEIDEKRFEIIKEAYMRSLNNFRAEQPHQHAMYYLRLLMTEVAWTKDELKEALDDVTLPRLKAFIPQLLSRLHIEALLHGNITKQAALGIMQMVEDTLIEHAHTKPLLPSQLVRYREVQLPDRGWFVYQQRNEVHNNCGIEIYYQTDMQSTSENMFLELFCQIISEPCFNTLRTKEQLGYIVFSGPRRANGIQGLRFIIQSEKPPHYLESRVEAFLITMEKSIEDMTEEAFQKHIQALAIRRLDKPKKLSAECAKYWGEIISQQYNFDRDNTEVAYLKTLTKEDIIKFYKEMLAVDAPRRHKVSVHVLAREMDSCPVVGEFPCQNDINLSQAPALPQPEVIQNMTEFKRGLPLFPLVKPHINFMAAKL
Method: In vitro IDE activity was measured with a quenched substrate […]. Human recombinant IDE was cloned and purified as previously described. […] All measurements were carried out as 8-point dose response curves and reported as the average of at least three independent measurements. […] Data analysis was performed using Xlfit v 5.0 and GraphPad Prism v 4.0. Nonlinear curve fitting and statistical analysis was done using built-in functions.

[5] = Stability in mouse plasma; type: in vitro ADME; settings: 37 °C, read-out: Plasma stability m (t1/2)
Method: Incubations were performed in duplicate in Eppendorf tubes. The plasma (mouse plasma, rat plasma (mixed gender), human (mixed gender, all lithium heparine, from Sera Laboratories International) or cell culture medium (differenciation medium: DMEM (Life Technologies, Ref 41965), 0.4 % gentamicine, 10 % FCS (Lonza, Ref DE14-801F) or proliferation medium: DMEM (Life Technologies, Ref 41965), 0.4 % gentamicine, 2 % horse serum (Gbco, Ref16050) was pre-incubated 5 min at 37 °C before the addition of test compounds to a final concentration of 10 μM (1% DMSO maximum). At the defined time points, 50 μl from each tube were removed to another tube containing 450 μl of cold CH3CN+ internal standard (1 μM). After centrifugation (10 min at 10,000 r.p.m.), supernatants are analysed. The degradation half-life (t1/2) values were calculated as t1/2=0.693/k where k is the first-order degradation rate constant. The degradation rate constant (k) was estimated by one-phase exponential decay nonlinear regression analysis of the degradation time course data using Xlfit software (version 2.1.2 or higher) from IDBS.Ltd.

O=C(C[C@@H](Cc1ccc2ccccc2c1)n1cc(CNC(=O)c2ccc(F)cc2)nn1)NO [Compound 1]
insulin signalling: phosphorylation of insulin receptor, Akt and ERK in liver and muscle [1]: Increase insulin signaling; also recorded: increased the phosphorylation | Aβ1–40 in culture supernatants [2]: significant elevations; also recorded: significantly increased; also recorded: dose-dependent increase | glucose tolerance in OGTT, WT NOD ([3]; 14 week-old female WT NOD mice, 3 g kg^−1 glucose): strong impairment of glucose tolerance | insulinaemia in OGTT, WT NOD ([3]; WT NOD mice): hyperinsulinemia | IC50 [4]: 300 nM | half-life at 10 μM [5]: 24 h

Source: paper PMC4580987, “Catalytic site inhibition of insulin-degrading enzyme by a small molecule induces glucose intolerance in mice” (Nature Communications, 2015)
